In PubChem BioAssay (NCI):
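Interpolation was linear, between the two tested concentrations surrounding the appropriate level; five concentrations were tested over 48 hours in 96-well plates. Here, GI50 denotes the concentration required for 50% inhibition of growth. TGI is the concentration that stops growth completely.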

Legend:
Test in all cases: NCI-60 cell line screen, 48 h
KM12 colon = system: KM12 colon
HOP-62 NSCLC = system: HOP-62 NSCLC
TK-10 renal = system: TK-10 renal
MALME-3M melanoma = system: MALME-3M melanoma
UO-31 renal = system: UO-31 renal
DU-145 prostate = system: DU-145 prostate
NCI-H460 lung = system: NCI-H460 lung
K-562 leukemia = system: K-562 leukemia
SK-MEL-28 melanoma = system: SK-MEL-28 melanoma
HCC-2998 colon = system: HCC-2998 colon

## CCSCCC(N)C(=O)O (stereo not given)
KM12 colon
  TGI: > 100 µM
HOP-62 NSCLC
  TGI: > 100 µM
TK-10 renal
  TGI: > 100 µM
MALME-3M melanoma
  TGI: > 100 µM
UO-31 renal
  TGI: > 100 µM
DU-145 prostate
  TGI: > 100 µM
NCI-H460 lung
  TGI: > 100 µM
K-562 leukemia
  TGI: > 100 µM
SK-MEL-28 melanoma
  TGI: > 100 µM
HCC-2998 colon
  TGI: > 100 µM

## CCOC(=O)CSc1nc(N)c2c(-c3ccc(OC)c(OC)c3)c3c(nc2n1)CCCC3
KM12 colon
  TGI: > 100 µM
HOP-62 NSCLC
  TGI: > 100 µM
TK-10 renal
  TGI: > 100 µM
MALME-3M melanoma
  TGI: > 100 µM
UO-31 renal
  TGI: > 100 µM
DU-145 prostate
  TGI: > 100 µM
NCI-H460 lung
  TGI: > 100 µM
K-562 leukemia
  TGI: > 100 µM
SK-MEL-28 melanoma
  TGI: > 100 µM

## CC(=O)Nc1cc([As](=O)(O)O)ccc1O
KM12 colon
  TGI: > 100 µM
HOP-62 NSCLC
  TGI: > 100 µM
TK-10 renal
  TGI: > 100 µM
MALME-3M melanoma
  TGI: > 100 µM
UO-31 renal
  TGI: > 100 µM
DU-145 prostate
  TGI: > 100 µM
NCI-H460 lung
  TGI: > 100 µM
K-562 leukemia
  TGI: > 100 µM
SK-MEL-28 melanoma
  TGI: > 100 µM
HCC-2998 colon
  TGI: > 100 µM

## CCN(CC)CC(C)Nc1ccc([N+](=O)[O-])c2sc3ccccc3c(=O)c12 (stereo not given)
KM12 colon
  GI50: 2.14 µM
  TGI: 13.5 µM
HOP-62 NSCLC
  GI50: 2.28 µM
  TGI: 12.3 µM
TK-10 renal
  GI50: 1.91 µM
  TGI: 54.2 µM
MALME-3M melanoma
  GI50: 1.31 µM
  TGI: 3.76 µM
UO-31 renal
  GI50: 1 µM
  TGI: 3.29 µM
DU-145 prostate
  GI50: 1.49 µM
  TGI: 9.79 µM
NCI-H460 lung
  GI50: 0.401 µM
  TGI: 2.14 µM
K-562 leukemia
  GI50: 1.46 µM
  TGI: 3.74 µM
SK-MEL-28 melanoma
  GI50: 1.95 µM
  TGI: 4.56 µM
HCC-2998 colon
  GI50: 2.21 µM
  TGI: 11.9 µM

## ONc1ncnc2nc[nH]c12
KM12 colon
  TGI: > 100 µM
HOP-62 NSCLC
  TGI: > 100 µM
TK-10 renal
  TGI: > 100 µM
MALME-3M melanoma
  TGI: > 100 µM
UO-31 renal
  TGI: > 100 µM
NCI-H460 lung
  TGI: > 100 µM
K-562 leukemia
  TGI: > 100 µM
SK-MEL-28 melanoma
  TGI: > 100 µM
HCC-2998 colon
  TGI: > 100 µM

## O=C(CCCCCCC(=O)Nc1ccc(N(CCCl)CCCl)cc1)NO
KM12 colon
  GI50: 6.58 µM
  TGI: 21.7 µM
HOP-62 NSCLC
  GI50: 2.98 µM
  TGI: 13.5 µM
MALME-3M melanoma
  GI50: 0.507 µM
  TGI: 5.6 µM
UO-31 renal
  GI50: 1.82 µM
  TGI: 13 µM
DU-145 prostate
  GI50: 2.72 µM
  TGI: 19.3 µM
NCI-H460 lung
  GI50: 0.598 µM
  TGI: 12.9 µM
K-562 leukemia
  GI50: 1.75 µM
  TGI: 12.3 µM
SK-MEL-28 melanoma
  GI50: 3.35 µM
  TGI: 16.3 µM
HCC-2998 colon
  GI50: 9.26 µM
  TGI: 22.6 µM

## Cc1nc(N)nc(N)c1-c1ccc(Cl)c(Cl)c1
KM12 colon
  TGI: > 100 µM
HOP-62 NSCLC
  TGI: > 100 µM
TK-10 renal
  TGI: > 51.9 µM
MALME-3M melanoma
  TGI: > 87.7 µM
UO-31 renal
  TGI: > 89.3 µM
DU-145 prostate
  TGI: > 100 µM
NCI-H460 lung
  TGI: > 92.1 µM
K-562 leukemia
  TGI: > 100 µM
SK-MEL-28 melanoma
  TGI: 47.1 µM
HCC-2998 colon
  TGI: > 50.6 µM

## COc1cc(C2C(C(=O)O)=C(CO)Oc3cc4c(cc32)OCO4)cc(OC)c1O (stereo not given)
HOP-62 NSCLC
  TGI: > 100 µM
TK-10 renal
  TGI: > 100 µM
MALME-3M melanoma
  TGI: > 100 µM
UO-31 renal
  TGI: > 100 µM
NCI-H460 lung
  TGI: > 100 µM
K-562 leukemia
  TGI: > 100 µM
SK-MEL-28 melanoma
  TGI: > 100 µM

## CCS(=O)(=O)Nc1ccc(Nc2c3ccccc3nc3ccccc23)c(OC)c1
KM12 colon
  TGI: 6.72 µM
HOP-62 NSCLC
  TGI: 1.21 µM
MALME-3M melanoma
  TGI: 2.37 µM
UO-31 renal
  TGI: 6.34 µM
NCI-H460 lung
  TGI: 1.19 µM
K-562 leukemia
  TGI: 14.6 µM
SK-MEL-28 melanoma
  TGI: 15.4 µM
HCC-2998 colon
  TGI: 9.3 µM

## CNC(=O)OC(C)CN1c2ccccc2Sc2ccc(Cl)cc21 (stereo not given)
HOP-62 NSCLC
  TGI: > 10 µM
TK-10 renal
  TGI: > 10 µM
MALME-3M melanoma
  TGI: > 10 µM
UO-31 renal
  TGI: > 10 µM
DU-145 prostate
  TGI: > 10 µM
NCI-H460 lung
  TGI: > 10 µM
K-562 leukemia
  TGI: > 10 µM
SK-MEL-28 melanoma
  TGI: > 10 µM
HCC-2998 colon
  TGI: > 10 µM

## C[C@]12CC[C@@H]3c4ccc(OP(=O)(O)O)cc4CC[C@H]3[C@@H]1CCC2=O
KM12 colon
  TGI: > 100 µM
HOP-62 NSCLC
  TGI: > 100 µM
TK-10 renal
  TGI: > 100 µM
MALME-3M melanoma
  TGI: > 100 µM
UO-31 renal
  TGI: > 100 µM
DU-145 prostate
  TGI: > 100 µM
NCI-H460 lung
  TGI: > 100 µM
K-562 leukemia
  TGI: > 100 µM
SK-MEL-28 melanoma
  TGI: > 100 µM
HCC-2998 colon
  TGI: > 100 µM
